Counter-ions that a name gives are not always drawn.

One assay relates to 3T3 or BPAE cells. As to the kind of experiment: Intracellular products of tracers by TLC and HPLC (Example 67). It counts as cell-based. To be noted: 5 μM, 1 hr, 37° C., HPLC. The method, then: Reaction mixtures with and without GST using Compound 1 as the substrate, are prepared as described in Example 48. The solutions are mixed overnight with three volumes of ethyl acetate followed by centrifugation at 15,000×g for 30 min to separate the organic and aqueous layers. HPLC analysis using a Rainin HPLC equipped with a C18, 5 μm, 100 Å, 4.6×250 mm MICROSORB-MV reverse phase column. Products are separated in 30 min with a gradient of 5% to 95% solvent B in Solvent A at a flow rate of 1 mL/min, where solvent A is 0.1M triethylammonium acetate, pH 7.0, and solvent B is acetonitrile (see FIG. 1). Products are detected by reading the absorbance at 500 nm. Peaks are identified and, if desired, quantitated by comparing retention times with authentic samples of the glutathione adduct of Compound 45 (Example 45).
(§1) Cultures of either 3T3 or BPAE cells are treated with 5 μM solutions of either Compound 4,5-(pentachlorobenzoylamino)fluorescein diacetate, 5-pentafluorobenzenesulfonylamino)fluorescein diacetate, or 5-chloromethylfluorescein diacetate (CMFDA, Molecular Probes, Inc.) for 1 hr at 37° C. The cells are spun, resuspended in distilled water and lysed by repeated freezing and thawing. 20 μL of the cell lysate supernatant is diluted with 30 μL of SDS-PAGE sample buffer, containing β-mercaptoethanol. The cell pellets are dispersed in 50 μL of water. 20 μL of each sample is added to 30 μL of the same sample buffer. The samples are heated at 95° C. for 5 min. and loaded on 4-20% polyacrylamide gradient minigels. At the completion of the run the gels are observed with UV excitation.
Alternatively, the above samples are analyzed by TLC and by HPLC, as described in Examples 48 and 52. […] Coinjection with authentic Compound 1 confirms the identity of the substrate peak and coinjection with the authentic Compound 1-GSH adduct (Example 45) confirms the identify of the other fluorescent product.
Consider `CC(=O)Oc1ccc2c(c1)Oc1cc(OC(C)=O)ccc1C21OC(=O)c2cc(CCl)ccc21` [CMFDA, 5-chloromethylfluorescein diacetate, reference compound], for which the “products by HPLC” value is “the glutathione adduct and additional small peaks”.

The assay is the same for the next values; noted with them: 5 μM, 1 hr, 37° C., TLC.
Consider `CC(=O)Oc1ccc2c(c1)Oc1cc(OC(C)=O)ccc1C21OC(=O)c2cc(NC(=O)c3c(Cl)c(Cl)c(Cl)c(Cl)c3Cl)ccc21` [5-(pentachlorobenzoylamino)fluorescein diacetate], for which the “products by TLC” value is recorded as “Only a single, fast-moving fluorescent band corresponding to authentic 5-(pentachlorobenzoylamino)fluorescein”.

Consider `CC(=O)Oc1ccc2c(c1)Oc1cc(OC(C)=O)ccc1C21OC(=O)c2cc(NS(=O)(=O)c3c(F)c(F)c(F)c(F)c3F)ccc21` [5-pentafluorobenzenesulfonylamino)fluorescein diacetate], for which the “products by TLC” value is “formation of a GSH adduct”.

With `CC(=O)Oc1ccc2c(c1)Oc1cc(OC(C)=O)ccc1C21OC(=O)c2cc(CCl)ccc21` [CMFDA, 5-chloromethylfluorescein diacetate, reference compound], the “products by TLC” value is reported as “multiple TLC bands”.

The next assay deals with Bovine pulmonary aorta endothelial cells (BPAEC). The assay is described as follows: Glutathione adduct formation and fate of substrate in cultured animal cells, HPLC (Example 66). It counts as cell-based. To be noted: BPAEC, up to 4 hours. The procedure: The solutions are mixed overnight with three volumes of ethyl acetate followed by centrifugation at 15,000×g for 30 min to separate the organic and aqueous layers. HPLC analysis using a Rainin HPLC equipped with a C18, 5 μm, 100 Å, 4.6×250 mm MICROSORB-MV reverse phase column. […] Products are detected by reading the absorbance at 500 nm.
Bovine pulmonary aorta endothelial cells (BPAEC) are removed from flasks by trypsinization and washed into fresh complete growth medium to yield 10^6 cells/mL. […] Other aliquots of the cell suspension are loaded with the same substrates for 1 hour, rinsed into fresh complete medium, then incubated in the absence of substrate for an additional 3 hr at 37° C. to look for retention and efflux of fluorescent products. At the end of each incubation period the cells are removed by centrifugation and the supernate is retained. The cell pellets are resuspended in 1 mL of E-Pure water and subjected to three freeze-thaw cycles (-80° C. to 37° C.).
On to `N[C@@H](CCC(=O)N[C@@H](CSc1c(F)c(F)c(C(=O)Nc2ccc3c(c2)C(=O)OC32c3ccc(O)cc3Oc3cc(O)ccc32)c(F)c1F)C(=O)NCC(=O)O)C(=O)O` [Compound 45, 5-(4'-(S-glutathionyl))-(2',3', 5',6'-tetrafluorobenzoylamino)fluorescein], for which the “retention of GSH adduct / fluorescence labeling in cells” value is given as “rapidly removed from the cytoplasm of these BPAEC cells but a fraction of the fluorescence labeling is retained, even after 4 hours”.

For the next assay, the system named is 3T3 or BPAE cells. The assay is described as follows: Intracellular products of tracers by gel electrophoresis (Example 67). It counts as cell-based. To be noted: 5 μM, 1 hr, 37° C. The procedure:
as §1
With `CC(=O)Oc1ccc2c(c1)Oc1cc(OC(C)=O)ccc1C21OC(=O)c2cc(NC(=O)c3c(Cl)c(Cl)c(Cl)c(Cl)c3Cl)ccc21` [5-(pentachlorobenzoylamino)fluorescein diacetate], the “fluorescent bands on gel (region of the tracking dye)” value is listed as “a single band in the region of the tracking dye” and the “protein adduct bands on gel” value is reported as “do not shown a protein adduct”.

`CC(=O)Oc1ccc2c(c1)Oc1cc(OC(C)=O)ccc1C21OC(=O)c2cc(NS(=O)(=O)c3c(F)c(F)c(F)c(F)c3F)ccc21` [5-pentafluorobenzenesulfonylamino)fluorescein diacetate]: the “fluorescent bands on gel (region of the tracking dye)” value is on record as “Two closely spaced green fluorescent bands” and the “protein adduct bands on gel” value is given as “No other band corresponding to proteins is visible”.

For `CC(=O)Oc1ccc2c(c1)Oc1cc(OC(C)=O)ccc1C21OC(=O)c2cc(CCl)ccc21` [CMFDA, 5-chloromethylfluorescein diacetate, reference compound], the “protein adduct bands on gel” value is reported as “multiple fluorescent bands”.

Another assay relates to glutathione S-transferase. The assay is described as follows: Other derivatives tested as GSH/GST substrates, TLC (Example 54). It counts as biochemical. To be noted: 0.2-0.5 mM compound in 50 mM MOPS, pH 7.5, TLC. The method, then: The reaction is then stopped by adding 10% H2 O2.
The PHA compound (ethanol stock solution, 2 mM) and reduced glutathione (phosphate buffer stock solution, 5 mM) are incubated under the same conditions as described above without addition of glutathione S-transferase.
Commercial precast silica gel TLC plates are used to follow both the enzymatic reaction and the blank control reaction. […] UV absorbance by the PHA substituent always permits detection of both the compound and any glutathione adduct by fluorescence quenching when the TLC sheet is illuminated with 254-nm radiation. Fluorescent compounds can be directly detected using appropriate UV or visible illumination. […] Furthermore, the intensity of the signal on the TLC sheet often can be enhanced by methods well known in the art, such as by application of a phosphomolybdate spray, iodine vapors or a similar detection reagent. Radioactive products can be directly detected and quantitated by exposure to a suitable film using methods well known in the art.
On to `O=C(c1c(F)c(F)c(F)c(F)c1F)c1cc2ccc(O)cc2oc1=O` [7-hydroxy-3-(pentafluorobenzoyl)coumarin], for which the glutathione adducts detected entry is given as “detectable glutathione adducts”.

Regarding `O=C(c1c(F)c(F)c(F)c(F)c1F)N1CCN(C(=O)c2c3oc4cc(O)c(Cl)cc4nc-3ccc2=O)CC1` [Compound 17], the glutathione adducts detected result was “detectable glutathione adducts”.

Turning to `O=C(c1c(F)c(F)c(F)c(F)c1F)N1CCN(C(=O)c2c3oc4cc(O[C@@H]5O[C@H](CO)[C@H](O)[C@H](O)[C@H]5O)c(Cl)cc4nc-3ccc2=O)CC1` [Compound 22, 8-chloro-3,7-dihydroxy-4-(4-pentafluorobenzoyl-1-piperazinecarbonyl)phenoxazine β-D-galactopyranoside], the glutathione adducts detected entry is “detectable glutathione adducts”.

`CN(C)c1ccc2c(c1)Oc1cc(N(C)C)ccc1C21OC(=O)c2cc(NC(=O)c3c(F)c(F)c(F)c(F)c3F)ccc21` [Compound 25, 5-(pentafluorobenzoylamino)tetramethylrhodamine]: the glutathione adducts detected result is “detectable glutathione adducts”.

`O=C(Nc1ccc2c(c1)C(=O)OC21c2ccc(O)cc2Oc2cc(O)ccc21)c1cc(F)c(F)c(F)c1` [Compound 26, 5-(3',4',5'-trifluorobenzoylamino)fluorescein]: the glutathione adducts detected entry was “detectable glutathione adducts”.

Take `O=C1OC2(c3ccc(O)cc3Oc3cc(O)ccc32)c2ccc(NC(=O)c3c(F)c(F)c(F)c(F)c3C(=O)O)cc21` [Compound 27, 5-(2'-carboxy-3',4',5',6'-tetrafluorobenzoylamino)fluorescein]: the glutathione adducts detected result is “detectable glutathione adducts”.

On to `O=C1OC2(c3ccc(O)cc3Oc3cc(O)ccc32)c2ccc(N3C(=O)c4c(F)c(F)c(F)c(F)c4C3=O)cc21` [Compound 28, 5-tetrafluorophthalimidylfluorescein], for which the glutathione adducts detected entry is “detectable glutathione adducts”.

As to `CCN(CC)c1ccc2c(CNC(=O)c3c(F)c(F)c(F)c(F)c3F)cc(=O)oc2c1` [Compound 29, 7-diethylamino-4-(((Pentafluorobenzoyl)amino)methyl)coumarin], the glutathione adducts detected result was “detectable glutathione adducts”.

As for `Cc1cc(C)n2c1C=C1C=CC(CCC(=O)NCCNC(=O)c3c(F)c(F)c(F)c(F)c3F)=[N+]1[B-]2(F)F` [Compound 30], the glutathione adducts detected entry is reported as “detectable glutathione adducts”.

`NCCNC(=O)c1c(F)c(F)c(F)c(F)c1F` [Compound 31, ((2-(pentafluorobenzoyl)amino)ethyl)ammonium trifluoroacetate]: the glutathione adducts detected result was “detectable glutathione adducts”.

As for `O=C(NCCNC(=O)c1cc2ccc(O)cc2oc1=O)c1c(F)c(F)c(F)c(F)c1F` [Compound 32, 7-hydroxy-3-((((2-(pentafluorobenzoyl)amino)ethyl)amino)carbonyl)coumarin], the glutathione adducts detected entry was “detectable glutathione adducts”.

Consider `CN(C)c1ccc2c(CC(=O)NCCNC(=O)c3c(F)c(F)c(F)c(F)c3F)cc(=O)oc2c1` [Compound 40, 7-dimethylamino-4-(((((2-(pentafluorobenzoyl)amino)ethyl)amino)carbonyl)methyl)coumarin], for which the glutathione adducts detected result is on record as “detectable glutathione adducts”.

As for `O=c1oc2cc(O)ccc2cc1-c1c(F)c(F)c(F)c(F)c1F` [Compound 41, 7-hydroxy-3-pentafluorophenylcoumarin], the glutathione adducts detected result is listed as “detectable glutathione adducts”.

In the case of `O=C(c1c(F)c(F)c(F)c(F)c1F)c1cc2cc(F)c(O)c(F)c2oc1=O` [Compound 42, 6,8-difluoro-7-hydroxy-3-pentafluorobenzoylcoumarin], the glutathione adducts detected entry was “detectable glutathione adducts”.

For the molecule `O=c1[nH][nH]c(=O)c2c(F)c(F)c(F)c(F)c12` [Compound 43, tetrafluorophthalhydrazide], the glutathione adducts detected result is “detectable glutathione adducts”.

Regarding `O=c1cc(-c2c(F)c(F)c(F)c(F)c2F)c2ccc(O)cc2o1` [Compound 44, 7-hydroxy-4-pentafluorophenylcoumarin], the glutathione adducts detected entry is “detectable glutathione adducts”.

These data come from patent publication US5773236A, “Assay for glutathiane transferase using polyhaloaryl-substituted reporter molecules” (Molecule Probes, Inc., priority 1997, dated 1998).
